Measurements taken from patent US20230011052A1, “METHOD AND COMPOSITIONS FOR REGULATED ARMORING OF CELLS” (Senti Biosciences, Inc., priority 2019, published 2023).
Several values for one entry are separate records, joined by “and”; a condition that tells them apart may be missing. Equal entries are not always repeated. Where two headings read alike, the source gives them in different places.

Columns and labels:
ERT2 domain = target: T1, ERT2 domain (Homo sapiens, UniProt P03372, G400V/L544A/M543A); assay: Tamoxifen (ERT2) regulatable TF reporter and CAR expression in T cells (MFI); format: cell-based; details: T cells with ERT2 regulatable TF 565 and reporter alone (1066) or on construct also encoding a CAR (2235); 1, 0.25, 0.1 uM or no drug; Day 9 MFI
T1 construct: expressed in transfected cells; host or cells: CD4/CD8 T cells, virally transduced
T1 sequence (P03372 311-547 G400V/M543A/L544A limits assumed): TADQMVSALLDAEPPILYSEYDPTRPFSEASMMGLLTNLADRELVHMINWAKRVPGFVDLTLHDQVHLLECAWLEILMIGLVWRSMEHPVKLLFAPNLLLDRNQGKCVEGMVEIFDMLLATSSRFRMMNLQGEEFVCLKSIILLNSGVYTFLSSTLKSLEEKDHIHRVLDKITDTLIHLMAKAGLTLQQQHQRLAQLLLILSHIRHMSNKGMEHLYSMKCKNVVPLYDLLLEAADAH
From the text: Various regulatable TF (also referred to as an activation-conditional control polypeptide (ACP) for drug-inducible formats or “synTF”) and expression cassettes were constructed as shown in FIG. 17A. […] The cassettes were cloned into a viral vector and used to produce virus.
On Day 0, CD4/CD8 T cells (FL00711) were thawed and activated with Dynabeads (3:1) in complete T cell media (Optimizer+Supplements—Gibco+5% human serum)+IL-2 (100 Units/ml). On Day 2, cells were transduced with 1×10^5 GV of virus. […] Florescent median intensity (MFI) was assessed of Day 9.

[1] = system: T cells engineered with drug-inducible ACP (NS3/NS4 protease cleavage site); assay: In vivo regulated armoring: plasma hIL-12 (Luminex) and circulating human T cells (flow cytometry); parameters: species or system NSG mice; details: 25 mg/kg Grz IP, BID; T cells with SB01845 & SB02357
Procedure: Negative controls were untransduced T cells. […] Dosing: Drug treated mice received 25 mg/kg Grz at each dosing time point; vehicle treated mice received equivalent volume of vehicle; all Grz dosing administered IP. Dosing continued BID on days 2-4. […] Mice were bled on day 4 and sacrificed/bled on day 5.

target cells = assay: T cell killing assay (LDH release); format: cell-based; details: +/- 2 μM GRZ for 48 hours
Procedure: For T cell killing assays, on Day 0 T cells were seeded at 1e6/mL+/−2 μM of GRZ for 48 hours to induce payload. On Day 2, target cells were counted and 35K were seeded per well in a 96 well plate for 4-6 hrs in target cell media. Then target cell media was removed and T cells were counted and 35K CAR normalized T cells were seeded [E:T— 1:1] in 200 µl of Optimizer media overnight. On Day 3, cells were transferred to a V-bottom plate, spun down, and supernatant harvested to determine killing activity using an LDH assay (CyQUANT LDH Cytotoxicity Assay; Life Technologies).

[2] = system: T cells engineered with drug-inducible ACP (inducible IL-12); format: in vivo; details: for Human T cells in the blood (hCD3+: hCD45+): inducible IL-12 T cells, individual mice
Procedure: Negative controls were untransduced T cells. […] All Grz dosing was administered IP.
A first series of Grazoprevir (Grz) dosing regimens were assessed, as described in Table 25.

[3] = system: T cells engineered with drug-inducible ACP (inducible IL-12)
Procedure: Grazoprevir potassium salt was dissolved sequentially in DMSO, PEG400, and PBS to reach 10 mg/mL. All Grz dosing was administered IP. 20e6 T cells per mouse were injected by tail vein injection, as indicated. Luminex assay was run to assess levels of hIL-12 in mouse plasma. Presence of human T cells in mouse blood was analyzed by flow cytometry.
Following the results of the experiments above, animals were dosed (IP) 60 mg/kg for 3 days once a day. Recombinant (hIL-2 1×10^4 IU) was also administered as indicated.

CC/C(=C(\c1ccccc1)c1ccc(OCCNC)cc1)c1ccccc1 [N-desmethyltamoxifen]
reporter (mCherry) expression (ERT2 domain): did not result expression of the reporter

C=C[C@@H]1C[C@]1(NC(=O)[C@@H]1C[C@@H]2CN1C(=O)[C@H](C(C)(C)C)NC(=O)O[C@@H]1C[C@H]1CCCCCc1nc3ccc(OC)cc3nc1O2)C(=O)NS(=O)(=O)C1CC1.O [grazoprevir]
hIL-12 in the plasma of mice above vehicle [1]: ~100 fold
difference in killing in the presence or absence of grazoprevir (target cells): No noticeable differences in killing
Human T cells in the blood (hCD3+: hCD45+) ([2]; Day 4, 25 mg/kg BID Grz IP, 25 mg/kg): 5.42 % of live cells and 0.08 % of live cells and 4.07 % of live cells and 3.61 % of live cells and 3.88 % of live cells and 5.91 % of live cells and 4.2 % of live cells and 3.14 % of live cells
Human T cells in the blood (hCD3+: hCD45+) ([2]; Day 4, 50 mg/kg Grz IP, 50 mg/kg): 4.09 % of live cells and 2.96 % of live cells and 3.7 % of live cells and 1.62 % of live cells and 4.16 % of live cells and 2.57 % of live cells and 4.55 % of live cells and 2.58 % of live cells
Human T cells in the blood (hCD3+: hCD45+) ([2]; Day 4, 75 mg/kg Grz IP, 75 mg/kg): 2.95 % of live cells and 3.14 % of live cells and 2.6 % of live cells and 0* % of live cells (2×) and 2.41 % of live cells and 1.43 % of live cells and 2.87 % of live cells
Human T cells in the blood (hCD3+: hCD45+) ([2]; Day 4, 25 + 50 mg/kg Grz IP, 50 mg/kg): 2.18 % of live cells and 6.98 % of live cells and 6.53 % of live cells and 13 % of live cells and 2.24 % of live cells and 4.72 % of live cells and 5.64 % of live cells and 7.89 % of live cells
serum IL-12 levels ([2]; Day 8): returned to baseline
Human T cells in the blood (hCD3+: hCD45+) ([2]; Day 8, 25 mg/kg BID Grz IP, 25 mg/kg): 6.78 % of live cells and 0.077 % of live cells and 3.63 % of live cells and 2.46 % of live cells and 2.07 % of live cells and 3.45 % of live cells and 2.27 % of live cells and 4.09 % of live cells
Human T cells in the blood (hCD3+: hCD45+) ([2]; Day 8, 50 mg/kg Grz IP, 50 mg/kg): 7.36 % of live cells and 10.9 % of live cells and 7.31 % of live cells and 8.1 % of live cells and 9.23 % of live cells and 5.88 % of live cells and 6.63 % of live cells and 7.34 % of live cells
Human T cells in the blood (hCD3+: hCD45+) ([2]; Day 8, 75 mg/kg Grz IP, 75 mg/kg): 8.19 % of live cells and 9.67 % of live cells and 6.55 % of live cells and 0.028 % of live cells and 11.6 % of live cells and 4.7e−003 % of live cells and 11 % of live cells and 3.79 % of live cells
Human T cells in the blood (hCD3+: hCD45+) ([2]; Day 8, 25 + 50 mg/kg Grz IP, 50 mg/kg): 7.09 % of live cells and 7.85 % of live cells and 9 % of live cells and 12 % of live cells and 6.34 % of live cells and 7.02 % of live cells and 8.65 % of live cells and 5.04 % of live cells
mice found dead ([2]; Day 12): 2 of 8
serum IL-12 levels ([2]; Day 12): remained stable
Human T cells in the blood (hCD3+: hCD45+) ([2]; Day 12, 25 mg/kg BID Grz IP, 25 mg/kg): 13.5 % of live cells and 0.21 % of live cells and 13.3 % of live cells and 9.36 % of live cells and 9.33 % of live cells and 14 % of live cells and 16.1 % of live cells and 13.8 % of live cells
Human T cells in the blood (hCD3+: hCD45+) ([2]; Day 12, 25 + 50 mg/kg Grz IP, 50 mg/kg): 10.9 % of live cells and 12.2 % of live cells and 11.1 % of live cells and 16.3 % of live cells and 2.61 % of live cells and 9.13 % of live cells
mice that lost ~15% weight during the first week of dosing ([3]; 60 mg/kg IP, these mice received only 30 mg/kg on day 3): 3 of 10
plasma IL-12 ([3]; Day 4, first on week): significant Grazoprevir dose dependent induction of IL-12
injected human T cells in blood when Grz was administered ([3]; Day 4, 60 mg/kg IP once a day for 3 days): significantly less
plasma IL-12 levels between drug and no-drug groups ([3]; Day 11, off week): equivalent
plasma IL-12 ([3]; Day 18, second on week): further significant Grazoprevir dose dependent induction of IL-12
injected human T cells in blood, inducible system groups with vs without Grz ([3]; Days 11, 18, and 25): no difference
organ findings at end time point ([3]; necropsy): pale kidneys, thick diaphragm, enlarged spleen, thick liver lobe, white/yellow lump growing inside the liver, and organs (liver, stomach, spleen) sticking with peritoneal wall and each other
body weight ([3]; time course): transient weight loss
